# Key:
# [1] = test system: male ICR mice; assay: Acute blood glucose lowering in normal ICR mice after intravenous lysophospholipid; assay type: in vivo, mouse
# Procedure: (§1) Animals. Male ICR mice were purchased from hyochang science (ROK). C57BLKSJ-db/db mice were purchased from SLC (Japan). After intravenous injection of LPC, blood glucose was measured regularly with a portable glucose meter (Gluco-Dr, ROK) after tail snipping. For measurement of serum insulin, blood samples of mice were determined with the insulin-RIA Kit (LINCO, Missouri). Insulin deficient mice were induced in male ICR mice by two consecutive daily intraperitoneal injection of STZ (200 mg/kg) dissolved in sodium citrate (pH 5.5). On the third day after the last STZ injection, acute glucose lowering effect was analyzed after intravenous injection of vehicle, LPC or insulin as described above.
# (§2) Eight-week-old male mice were intravenously injected with PBS, insulin, LPC, or LPE. Blood glucose was monitored after dosing (0 to 120 min). […] All animals had free access to water. Animal care was in accordance with institutional guidelines. All data are shown as means±SE (n=5-6).*P<0.05.
# [2] = test system: 3T3-L1 adipocytes; assay: [14C] 2-deoxy-D-glucose uptake in 3T3-L1 adipocytes; assay type: cell-based; conditions: for stimulation of glucose uptake: equimolar 20 μM, 10 min
# Procedure: Cell culture: 3T3-L1 fibroblasts were grown to confluence in DMEM containing a high glucose concentration, 10% fetal bovine serum, 50 U of penicillin per ml, and 50 ug of streptomycin per ml and maintained in a 5% CO2 humidified atmosphere at 37° C. 3T3-L1 was induced to differentiate into adipocytes, as described previously (van den Berghe, N., et al., Mol Cell Biol 14, pp. 2372-2377, 1994).
# Glucose uptake measurement. For measuring glucose uptake in 3T3-L1 adipocytes, cells were grown in serum-free DMEM for 16 h and then incubated in the absence or presence of insulin or lysophospholipids for the indicated times at 37° C. Uptake was measured by adding 1 μCi of [^14C] 2-deoxy-D-glucose and 3 mM 2-deoxy-D-glucose. After 10 min, the assay was terminated by two quick washes with ice-cold PBS. Cells were lysed in 0:5 ml of lysis buffer containing 0.5 N NaOH and 0.1% SDS. The cell lysates were used for liquid scintillation counting and nonspecific uptake was assayed in the presence of 10 μM cytochalasin B (van den Berghe, N., et al., Mol Cell Biol 14, pp. 2372-2377, 1994).
# FIG. 2A to 2D show the effects of LPC on the glucose uptake in 3T3-L1 adipocytes. […] After these treatments, [^14C] 2-deoxy-D-glucose uptake was measured for 10 min as described in Material Methods. […] FIGS. 2C and 2D show relative [^14C] 2-deoxy-D-glucose uptake in 3T3-L1 adipocytes incubated in the absence (control) or presence of equimolar concentrations (20 μM) of myristoyl lysophosphatidylcholine (14:0 LPC), palmytoyl lysophosphatidylcholine (16:0 LPC), stearoyl lysophosphatidylcholine (18:0 LPC), palmytoyl lysophsophatidylethanolamine (16:0 LPE), palmytoyl lyso-phosphatidylinositol (16:0 LPI), palmytoyl lysophosphatidylglycerol (16:0 LPG) for 10 min. Values are mean±SE of three independent experiments performed in triplicate. *P<0.05 vs. basal.
# [3] = test system: IRS1 and AKT; assay: IRS1 and AKT phosphorylation in 3T3-L1 adipocytes (immunoblot); assay type: cell-based; conditions: LPC treatment of 3T3-L1 adipocytes
# Procedure: Immunoblotting. For preparing total cell lysates, 3T3-L1 adipocytes were washed with Ca^2+/Mg^2+-free PBS and then lysed in the lysis buffer (50 mM HEPES, pH 7.2, 150 mM NaCl, 50 mM NaF, 1 mM Na3VO4, 10% glycerol, 1% Triton X-100). The lysates were centrifuged at 15,000 rpm for 15 min at 4° C. The proteins were denatured by boiling in laemmli sample buffer for 5 min at 95° C., separated by SDS-PAGE. SDS-gel was transferred to nitrocellulose membrane using Hoefer wet transfer system. Membranes were blocked in TTBS (20 mM Tris-HCl, pH 7.6, 150 mM NaCl, 0.05% Tween 20) containing 5% skimmed milk powder for 30 min and then incubated with antibodies for 3 hours. After washing membranes several times with TTBS, the blots were incubated with HRP (Horseradish peroxidase)-conjugated goat anti-rabbit for 1 hour. The blots were washed with TTBS and developed by ECL.
# [4] = test system: GLUT4; assay: GLUT4 translocation to the plasma membrane in 3T3-L1 adipocytes; assay type: cell-based; conditions: 20 μM, 10 min, plasma membrane fraction
# Procedure: Membrane fractionation of adipocytes. For obtaining total membranes (TM) from 3T3-L1 adipocytes, cells were collected into 10 ml of ice-cold HES buffer (250 mM sucrose, 1 mM EDTA, 1 mM phenylmethylsulfonyl fluoride [PMSF], 1 μM pepstatin, 1 μM aprotinin, 1 μM leupeptin, and 20 mM HEPES, pH 7.4) and subsequently homogenized with 30 strokes in a glass Dounce homogenizer at 4° C. After centrifugation at 1,000 g for 5 min at 4° C. to remove unbroken cells, the supernatant was then centrifugated at 212,000 g for 90 min at 4° C. to yield a pellet of total cellular membranes. To obtain the plasma membrane (PM) subcellular fraction from 3T3-L1 adipocytes, differential ultracentrifugation was used as described previously (Perrini, S., et al., Diabetes 53, pp. 41-52, 2004).
# Immunoblotting. For preparing total cell lysates, 3T3-L1 adipocytes were washed with Ca^2+/Mg^2+-free PBS and then lysed in the lysis buffer (50 mM HEPES, pH 7.2, 150 mM NaCl, 50 mM NaF, 1 mM Na3VO4, 10% glycerol, 1% Triton X-100). The lysates were centrifuged at 15,000 rpm for 15 min at 4° C. […]
# FIGS. 3A and 3B show LPC stimulates GLUT4 translocation in 3T3-L1 adipocytes. […] In each experiment, the relative increase or decrease in the integrated density value (IDV) of GLUT4 after stimulation with compounds is calculated. B) Quantitation of relative increases is depicted. […]
# [5] = test system: 3T3-L1 adipocytes; assay: Cytotoxicity of LPC concentration used on 3T3-L1 adipocytes; assay type: cell-based; conditions: 20 μM LPC
# [6] = test system: C2C12 muscle cells; assay: Glucose uptake in C2C12 muscle cells (LPC); assay type: cell-based; conditions: data not shown
# [7] = test system: male ICR mice; assay: Serum insulin level in mice after single intravenous injection; assay type: in vivo, mouse
# Procedure: as §1, §2
# [8] = test system: STZ-treated insulin deficient ICR male mice; assay: Acute glucose lowering in streptozotocin (STZ)-treated insulin deficient ICR mice; assay type: in vivo, mouse; conditions: 30 μmol/kg i.v. LPC
# Procedure: as §1, §2
# [9] = test system: C57BLKSJ-db/db mice; assay: Acute glucose lowering in insulin-resistant obese db/db mice; assay type: in vivo, mouse; conditions: injection of LPC
# Procedure: as §1, §2
# [10] = 3T3-L1 adipocytes, 10 min incubation
compound,measurement,setting,value
"CCCCCCCCCCCCCCCC(=O)OC[C@@H](O)COP(=O)([O-])OCC[N+](C)(C)C [LPC, palmytoyl lysophosphatidylcholine]",time to statistically significant fall in blood glucose,[1]; 15 or 30 μmol/kg i.v.,≤ 30 min
same,blood glucose levels in ICR mice,"[1]; 15 or 30 μmol/kg i.v., acute",statistically significant fall in blood glucose levels
same,"blood glucose lowering, comparison of lysophospholipid species","[1]; doses equimolar to 30 μmol/kg i.v., ICR mice",significant effect on the blood glucose lowering
same,incubation time at which glucose uptake was maximally increased,"[2]; 20 μM, 0 to 20 min",10 min
same,concentration of initial statistically significant effect on glucose uptake,[2]; [10],1 µM
same,concentration of maximal effect on glucose uptake,[2]; [10],20 µM
same,time and dose dependence of glucose uptake,"[2]; 3T3-L1 adipocytes, various concentrations",time- and dose-dependent increase in glucose uptake
same,stimulation of glucose uptake,[2],specifically stimulated glucose uptake
same,stimulation of glucose uptake,[2]; listed as palmytoyl LPC,stimulated glucose uptake
same,phosphorylation of IRS1 and AKT,[3],had no effects on phosphorylation of IRS1 and AKT
same,PM content of GLUT4 proteins,[4],180 % of basal
same,cytotoxicity,[5],not cytotoxic
same,rate of glucose uptake in C2C12 muscle cells,[6],increased the rate of glucose uptake in a dose dependent manner
same,change in blood insulin levels,[7],not due to changes in blood insulin levels
same,blood glucose concentrations in STZ-treated insulin deficient mice,[8],significantly reduced blood glucose concentrations
same,blood glucose in insulin-resistant obese db/db mice,[9],dropped to near normal levels
